Data from patent US20100119483A1, “PEPTIDE VIRAL ENTRY INHIBITORS” (Schering Corporation, priority 2004, published 2010).
Several values for one entry are separate records, joined by “and”; a condition that tells them apart may be missing. Identical values can stand only once.

Test system: HCV pseudoparticles
Test: HCV pseudoparticle (HCVpp) entry assay in Huh7 hepatoma cells, luciferase readout
Assay type: cell-based, hepatitis C virus
Settings: for % of control at ~30 uM: percentage of hepatitis C virus cellular entry at 30 μM peptide vs uninhibited control
Experimental: HCV pseudotype particle generation. Single cycle HCV pseudoparticles are composed of a replication-defective HIV genome and HCV envelope proteins. These pseudoparticles were made by transfecting 293T cells with 5 ug of each pNL43E-R-luc (Chen et al., J. Virol. 68(2):654-60 (1994)) and plasmid expressing HCV envelope proteins pCMV/E1-2 with profection transfection kit from Promega (Madison, Wis.). The medium was refreshed 12-24 hours after transfection and supernatant was collected 48 hours after transfection. The supernatant from a transfection of only pNL43E-R-luc was used each time as a control for non specific entry events.
Infection of hepatoma cell lines with HCV pseudotype particles and screen for inhibitory peptides. The hepatoma cells, Huh7, was seeded at 8000 cells in 90 ul medium in 96-well plate. In the case of the inhibitor screen, the inhibitor was incubated with cells for one hour at 37° C. and then 50 ul viral supernatant was added to the cells 24 hours after seeding. The viral stock was pre-tittered and diluted to yield approximately 10,000 to 20,000 RLU. The cells were incubated at 37° C. with 5% CO2 for additional 72 hours and were harvested for luciferase assay. Peptide stocks were prepared in 100% DMSO at 10 mg/ml and were first screened at 100 ug/ml and then a dose responsive curve was generated with 10 points 3-fold titration starting from 100 ug/ml.
The peptide of SEQ ID NO: 77 was first serial diluted by the factor of 3 in 100% DMSO from 100 ug/ml and then transferred to the assay plates at 100-fold dilution. The peptide was first incubated with cells and HCVpp (A) or HIVpp (B), respectively, for 30 minutes at […] in this experiment. Then, the medium containing the peptide was removed from the cells and virus with peptide was added to the cells. Cells were incubated for 72 hours and then were harvested for luciferase assay. Two separate trials were performed.
In addition, the peptide of SEQ ID NO: 77 was mutated at several positions and assayed in the HCV entry assay discussed above. […] The assays were performed essentially as described above.

[1] = 0.1 nM of peptide (printed for three rows), two values per peptide and row
[2] = 0.3 nM of peptide, two values per peptide
[3] = 1 nM of peptide, two values per peptide
[4] = 3 nM of peptide, two values per peptide
[5] = 10 nM of peptide, two values per peptide
[6] = 30 nM of peptide, two values per peptide
[7] = 100 nM of peptide, two values per peptide
[8] = 300 nM of peptide, two values per peptide
[9] = 10000 nM of peptide, two values per peptide
[10] = 30000 nM of peptide, two values per peptide

Substance	% control (HCVpp entry), alanine scanning [1]	% control (HCVpp entry), alanine scanning [2]	% control (HCVpp entry), alanine scanning [3]	% control (HCVpp entry), alanine scanning [4]	% control (HCVpp entry), alanine scanning [5]	% control (HCVpp entry), alanine scanning [6]	% control (HCVpp entry), alanine scanning [7]	% control (HCVpp entry), alanine scanning [8]	% of control at ~30 uM [%]	% control (HCVpp entry), lysine scanning [1]	% control (HCVpp entry), lysine scanning [2]	% control (HCVpp entry), lysine scanning [3]	% control (HCVpp entry), lysine scanning [4]	% control (HCVpp entry), lysine scanning [5]	% control (HCVpp entry), lysine scanning [6]	% control (HCVpp entry), lysine scanning [7]	% control (HCVpp entry), lysine scanning [8]	% control (HCVpp entry), lysine scanning [9]	% control (HCVpp entry), lysine scanning [10]	further results
A-I-K-W-E-P-V-L-L-L-F-L-L (AIKWEPVLLLFLL; HCV peptide) [SEQ ID NO: 120]	–	–	–	–	–	–	–	–	–	–	–	–	–	–	–	–	–	–	–	% control (HCVpp entry), proline scanning [1]: 82 % control and 78 % control and 102 % control and 80 % control and 101 % control and 117 % control; % control (HCVpp entry), proline scanning [2]: 90 % control and 75 % control; % control (HCVpp entry), proline scanning [3]: 91 % control and 75 % control; % control (HCVpp entry), proline scanning [4]: 66 % control and 76 % control; % control (HCVpp entry), proline scanning [5]: 73 % control and 76 % control; % control (HCVpp entry), proline scanning [6]: 72 % control and 40 % control; % control (HCVpp entry), proline scanning [7]: 39 % control; % control (HCVpp entry), proline scanning [8]: 33 % control and 39 % control; % control (HCVpp entry), proline scanning [9]: 24 % control; % control (HCVpp entry), proline scanning [10]: 38 % control and 42 % control
A-I-K-W-E-Y-A-L-L-L-F-L-L (AIKWEYALLLFLL; HCV peptide) [SEQ ID NO: 92, Ala-scan]	73 % control and 115 % control and 82 % control and 89 % control and 99 % control and 130 % control	85 % control and 61 % control	90 % control and 80 % control	68 % control and 99 % control	82 % control and 59 % control	42 % control and 64 % control	32 % control and 25 % control	21 % control and 30 % control	17	–	–	–	–	–	–	–	–	–	–	–
A-I-K-W-E-Y-K-L-L-L-F-L-L (AIKWEYKLLLFLL; HCV peptide) [SEQ ID NO: 131]	–	–	–	–	–	–	–	–	–	97 % control and 80 % control and 94 % control and 96 % control and 113 % control	105 % control and 81 % control	85 % control and 68 % control	71 % control and 85 % control	74 % control and 66 % control	71 % control and 68 % control	49 % control and 62 % control	29 % control and 42 % control	16 % control and 14 % control	30 % control and 44 % control	–
A-I-K-W-E-Y-P-L-L-L-F-L-L (AIKWEYPLLLFLL; HCV peptide) [SEQ ID NO: 121]	–	–	–	–	–	–	–	–	–	–	–	–	–	–	–	–	–	–	–	% control (HCVpp entry), proline scanning [1]: 77 % control and 95 % control and 91 % control and 115 % control and 104 % control and 90 % control; % control (HCVpp entry), proline scanning [2]: 68 % control and 84 % control; % control (HCVpp entry), proline scanning [3]: 76 % control and 110 % control; % control (HCVpp entry), proline scanning [4]: 85 % control and 87 % control; % control (HCVpp entry), proline scanning [5]: 75 % control and 66 % control; % control (HCVpp entry), proline scanning [6]: 70 % control and 82 % control; % control (HCVpp entry), proline scanning [7]: 44 % control and 63 % control; % control (HCVpp entry), proline scanning [8]: 42 % control and 30 % control; % control (HCVpp entry), proline scanning [10]: 32 % control and 41 % control
A-I-K-W-E-Y-V-A-L-L-F-L-L (AIKWEYVALLFLL; HCV peptide) [SEQ ID NO: 93, Ala-scan]	91 % control and 83 % control and 80 % control and 104 % control and 134 % control and 81 % control	86 % control and 105 % control	85 % control and 87 % control	78 % control and 87 % control	71 % control and 67 % control	58 % control and 51 % control	47 % control and 42 % control	32 % control and 27 % control	13	–	–	–	–	–	–	–	–	–	–	% control (HCVpp entry), alanine scanning [9]: 41 % control and 32 % control; % control (HCVpp entry), alanine scanning [10]: 32 % control
A-I-K-W-E-Y-V-K-L-L-F-L-L (AIKWEYVKLLFLL; HCV peptide) [SEQ ID NO: 132]	–	–	–	–	–	–	–	–	–	73 % control and 89 % control and 95 % control and 92 % control and 117 % control and 96 % control	100 % control and 71 % control	67 % control and 79 % control	78 % control and 75 % control	54 % control and 56 % control	71 % control and 89 % control	59 % control and 62 % control	46 % control and 44 % control	49 % control and 50 % control	42 % control and 41 % control	–
A-I-K-W-E-Y-V-L-A-L-F-L-L (AIKWEYVLALFLL; HCV peptide) [SEQ ID NO: 94, Ala-scan]	99 % control and 96 % control and 79 % control and 101 % control and 115 % control and 105 % control	104 % control and 92 % control	81 % control and 82 % control	58 % control and 89 % control	79 % control and 86 % control	58 % control and 48 % control	45 % control and 41 % control	42 % control and 33 % control	17	–	–	–	–	–	–	–	–	–	–	% control (HCVpp entry), alanine scanning [9]: 36 % control and 34 % control; % control (HCVpp entry), alanine scanning [10]: 14 % control and 28 % control
A-I-K-W-E-Y-V-L-K-L-F-L-L (AIKWEYVLKLFLL; HCV peptide) [SEQ ID NO: 133]	–	–	–	–	–	–	–	–	–	78 % control and 85 % control and 96 % control and 101 % control and 87 % control and 116 % control	108 % control and 78 % control	96 % control and 82 % control	95 % control and 79 % control	77 % control and 113 % control	80 % control and 68 % control	75 % control and 60 % control	41 % control and 56 % control	24 % control and 39 % control	–	–
A-I-K-W-E-Y-V-L-L-K-F-L-L (AIKWEYVLLKFLL; HCV peptide) [SEQ ID NO: 134]	–	–	–	–	–	–	–	–	–	80 % control and 96 % control and 108 % control and 75 % control and 138 % control and 79 % control	104 % control and 85 % control	128 % control and 81 % control	94 % control and 92 % control	105 % control and 77 % control	101 % control and 76 % control	89 % control and 87 % control	75 % control and 68 % control	60 % control and 47 % control	56 % control and 45 % control	–
